Results as given in patent US12552796B2, “EED inhibitor, and preparation method therefor and use thereof” (SHANGHAITECH UNIVERSITY, priority 2019, dated 2026).
pIC50: −log10 of the molar value.

Assays:
Karpas422 cells = experiment: Cell proliferation assay, Karpas422; format: cell-based; conditions: Homo sapiens, KARPAS-422; Karpas422 cells, cultured to the 14th day; read-out: Anti-proliferation IC50
Method: (§1) Human B-cell non-Hodgkin's lymphoma cells WSU-DLCL2, Karpas422 and Pfeiffer were cultured in cell culture flasks in a sterile incubator with 95% relative humidity and 5% CO2 at 37° C. The medium was RPMI-1640 (Gibco, product No. 31800022) containing 15% fetal bovine serum (FBS, Gibco, product No. 10099141) and 0.1% penicillin/streptomycin solution (P/S). In order to assay the effects of compounds on cell proliferation, cells in exponential growth phase were seeded into a 12-well plate (Nunc, product No. 150628) with 1 mL of medium per well, wherein WSU-DLCL2 and Karpas422 were seeded at a density of 1×10^5 cells/well, and Pfeiffer was seeded at a density of 2×10^5 cells/well. At the same time, different concentrations of compounds were added to the wells that had seeded with cells (6 concentrations were set for each compound at 3-fold serial dilution), and the final concentration of DMSO was 0.1%. After that, the number of viable cells was determined by Vi-CELL (Beckman Coulter) for WSU-DLCL2 and Pfeiffer every 3 days, and for Karpas422 on days 4, 7, and 11, respectively. The cells counted each time were seeded into a new 12-well plate at the same density, and supplemented with fresh medium to 1 mL. Different concentrations of compounds were added at the same time. WSU-DLCL2 and Pfeiffer were cultured to the 9th day, and Karpas422 was cultured to the 14th day. Cell data were collected uniformly, and analyzed with GraphPad prisim5. Dose curves were fitted, and IC50 values of the assay compounds were obtained.

Pfeiffer cells = experiment: Cell proliferation assay, Pfeiffer; format: cell-based; conditions: Homo sapiens, cultured to the 9th day, read-out: Anti-proliferation IC50
Method: as §1

[1] = Pharmacokinetic study in rats; format: in vivo, SD rats; conditions: rat; for AUC(0-inf) / Cmax / Tmax / clearance / half-life / MRT inf: male, SD, plasma; for MRT inf: read-out: MRT0-∞
Method: Six SPF SD rats, male, weighing 180-220 g, were randomly divided into 2 groups with 3 rats in each group. The compounds of the present disclosure were administered by oral gavage (PO) and intravenous injection (IV), respectively, and the assay compounds were formulated with a vehicle (5% DMSO+10% Solutol+85% pH 4.65 Acetate buffer).
Dosage: 1 mg/kg for intravenous injection and 2 mg/kg for oral administration.
(§2) Dosing volume: 5 mL/kg for intravenous injection and 10 mL/kg for oral administration.
(§3) The oral administration group was fasted overnight (10-14 h) before the assay, and drank water freely. After 4 hours of administration, they were fed uniformly. They were weighed before administration, and the dosage was calculated according to the body weight.
Intravenous administration: 0.083, 0.25, 0.5, 1, 2, 4, 6, 8, 10 and 24 h after administration;
Oral gavage administration: 0.25, 0.5, 1, 2, 4, 6, 8, 10, 12 and 24 h after administration;
(§4) Blood was collected from the jugular vein of rats at the above set time points, about 0.2 mL each time. The blood was anticoagulated with heparin sodium, placed on ice after collection, and centrifuged within 1 hour to separate the plasma (centrifugation conditions: 6800 g, 6 minutes, 2-8° C.). Plasma samples were stored in a −80° C. freezer prior to analysis.
The concentration of each compound in rat plasma was determined by LC/MS/MS method.
(§5) Through the plasma drug concentration data at different time points, pharmacokinetic parameters were calculated using Phoenix WinNonlin 7.0, thereby providing parameters such as AUC0-t, AUC0-∞, MRT0-∞, Cmax, Tmax, and T1/2 and mean and standard deviation thereof.

[2] = Pharmacokinetic study in canine; format: in vivo, Beagle dogs; conditions: Beagle dog; for AUC(0-inf) / Cmax / Tmax / clearance / half-life / MRT inf: male, plasma; for MRT inf: read-out: MRT0-∞
Method: Six ordinary Beagle dogs, male, weighing 10-12 kg, were randomly divided into 2 groups with 3 dogs in each group. The compounds of the present disclosure were administered by oral gavage (PO) and intravenous injection (IV), respectively, and the assay compounds were formulated with the corresponding vehicles.
Dosage: 1 mg/kg for intravenous injection and 5 mg/kg for oral administration.
as §2
as §3, with “weight. 2. Blood collection time point and sample processing:” for “weight.”
Intravenous administration: 0.083, 0.25, 0.5, 1, 2, 4, 8, 12 and 24 h after administration;
Oral gavage administration: 0.25, 0.5, 1, 2, 4, 6, 8, 12 and 24 h after administration;
as §4, with “veins” for “jugular vein”, “extremities,” for “rats at the above set time points,”, “0.5-1” for “0.2”
The concentration of each compound in canine plasma was determined by LC/MS/MS method.
as §5

WSU-DLCL2 cells = experiment: Cell proliferation assay, WSU-DLCL2; format: cell-based; conditions: Homo sapiens, WSUDLCL2; WSU-DLCL2 cells, cultured to the 9th day; read-out: Anti-proliferation IC50
Method: as §1

[3] = system: Karpas 422 human B-cell lymphoma cells; experiment: Mouse Karpas422 CDX model, tumor growth; format: in vivo, balb/c nude mice; conditions: Karpas422 CDX mice; for tumor growth inhibition (TGI %), Day 11 after administration / tumor growth inhibition (TGI %), Day 21 after administration: intragastric; for effect on tumor growth (FIG. 1): different dosages
Method: Female balb/c nude mice aged 6-8 weeks were selected and housed under SPF conditions (i.e., 20-22° C.; 40-70% relative humidity) in individual ventilated cages at constant temperature and humidity. There were 5 or fewer animals in each cage. Animals had access to dry pelleted food sterilized by irradiation and sterile drinking water. Karpas 422 human B-cell lymphoma cells were cultured in RPMI-1640 (Gibco, product No. 31800022) containing 15% fetal bovine serum (FBS, Gibco, product No. 10099141) and 0.1% penicillin/streptomycin solution (P/S). The cells were cultured in a sterile incubator at a temperature of 37° C., a relative humidity of 95%, and 5% CO2. Karpas 422 cells cultured in vitro were maintained at a concentration between 0.5-2×10^6 cells/mL cells in suspension culture and passaged at a 1:3 dilution every 2-4 days. To establish the xenograft model, cells were collected, resuspended in PBS, mixed 1:1 by volume with Matrigel (BD) at a concentration of 5×10^7 cells/mL, and then injected subcutaneously into the right side of balb/c nude mice (Vital River) with 5×10^6 cells per animal. When tumors grew to about 150 mm^3, mice were divided into groups with 6 mice in each group. The mice were administered intragastrically, and the tumor size and mouse body weight were measured twice a week. The two largest diameters of the transplanted tumor, width (W) and length (L), were manually measured with a vernier caliper, and the tumor volume was estimated using the formula: 0.5×L×W^2. After the assay, the mice were euthanized.
The assay compounds were prepared as a suspension in pure water containing 0.5% HPMC+0.5% Tween 80 as a solvent. The dosing volume was 10 mL/kg.
In this study, changes in mouse tumor volume and relative changes in mouse body weight were assayed, and the results were shown in FIGS. 1 and 2.

[4] = system: cellular H3K27 methylation; experiment: Cellular H3K27 methylation assay (Western blot of H3K27me3 in HeLa cells); format: cell-based; conditions: Homo sapiens, 72 h; HeLa cells, 3 days, H3K27me3 level by Western blot; read-out: PD IC50

Structure (SMILES): Fc1ccc2c(c1CNc1ncc(OC3CCOCC3)c3nncn13)CCO2 [HJM-016]
- pIC50 (Karpas422 cells): 7.13
- pIC50 (Pfeiffer cells): 7.25
- AUC(0-inf) ([1]; IV, 1 mg/kg): 2060 ng·h/mL
- Cmax ([1]; IV, 1 mg/kg): 932 ng/mL
- Tmax ([1]; IV, 1 mg/kg): 0.08 h
- clearance ([1]; IV, 1 mg/kg): 8.24 mL/min/kg
- half-life ([1]; IV, 1 mg/kg): 2.33 h
- MRT inf ([1]; IV, 1 mg/kg): 2.94 h
- AUC(0-inf) ([1]; PO, 2 mg/kg): 3900 ng·h/mL
- Cmax ([1]; PO, 2 mg/kg): 482 ng/mL
- Tmax ([1]; PO, 2 mg/kg): 4 h
- half-life ([1]; PO, 2 mg/kg): 2.8 h
- MRT inf ([1]; PO, 2 mg/kg): 5.58 h
- F ([1]; PO, 2 mg/kg): 98.86%
- F ([2]; PO, 5 mg/kg): 62.50%
- AUC(0-inf) ([2]; IV, 1 mg/kg): 8840 ng·h/mL
- Cmax ([2]; IV, 1 mg/kg): 1220 ng/mL
- Tmax ([2]; IV, 1 mg/kg): 0.08 h
- clearance ([2]; IV, 1 mg/kg): 1.92 mL/min/kg
- half-life ([2]; IV, 1 mg/kg): 5.87 h
- MRT inf ([2]; IV, 1 mg/kg): 8.39 h
- AUC(0-inf) ([2]; PO, 5 mg/kg): 27200 ng·h/mL
- Cmax ([2]; PO, 5 mg/kg): 2900 ng/mL
- Tmax ([2]; PO, 5 mg/kg): 2 h
- half-life ([2]; PO, 5 mg/kg): 5.18 h
- MRT inf ([2]; PO, 5 mg/kg): 7.97 h
- pIC50 (WSU-DLCL2 cells): 7.06
- tumor growth inhibition (TGI %), Day 11 after administration ([3]; 30 mg/kg): 8.5%
- tumor growth inhibition (TGI %), Day 21 after administration ([3]; 30 mg/kg): 56.1%
- tumor growth inhibition (TGI %), Day 11 after administration ([3]; 100 mg/kg): 52.3%
- tumor growth inhibition (TGI %), Day 21 after administration ([3]; 100 mg/kg): 105.39%
- effect on tumor growth (FIG. 1) [3]: complete tumor disappearance
- pIC50 [4]: 7.46

Structure (SMILES): CN(C(=O)C1CC1)c1cnc(NCc2c(F)ccc3c2CCO3)n2cnnc12 [HJM-045]
- pIC50 (Karpas422 cells): 7.87
- pIC50 (Pfeiffer cells): 7.98
- AUC(0-inf) ([1]; IV, 1 mg/kg): 639 ng·h/mL
- Cmax ([1]; IV, 1 mg/kg): 794 ng/mL
- Tmax ([1]; IV, 1 mg/kg): 0.08 h
- clearance ([1]; IV, 1 mg/kg): 26.4 mL/min/kg
- half-life ([1]; IV, 1 mg/kg): 1.17 h
- MRT inf ([1]; IV, 1 mg/kg): 1.06 h
- AUC(0-inf) ([1]; PO, 2 mg/kg): 628 ng·h/mL
- Cmax ([1]; PO, 2 mg/kg): 119 ng/mL
- Tmax ([1]; PO, 2 mg/kg): 2.83 h
- half-life ([1]; PO, 2 mg/kg): 1.46 h
- MRT inf ([1]; PO, 2 mg/kg): 3.51 h
- F ([1]; PO, 2 mg/kg): 48.40%
- F ([2]; PO, 5 mg/kg): 90.95%
- AUC(0-inf) ([2]; IV, 1 mg/kg): 4500 ng·h/mL
- Cmax ([2]; IV, 1 mg/kg): 1150 ng/mL
- Tmax ([2]; IV, 1 mg/kg): 0.08 h
- clearance ([2]; IV, 1 mg/kg): 3.7 mL/min/kg
- half-life ([2]; IV, 1 mg/kg): 4.13 h
- MRT inf ([2]; IV, 1 mg/kg): 5.35 h
- AUC(0-inf) ([2]; PO, 5 mg/kg): 20700 ng·h/mL
- Cmax ([2]; PO, 5 mg/kg): 3700 ng/mL
- Tmax ([2]; PO, 5 mg/kg): 0.5 h
- half-life ([2]; PO, 5 mg/kg): 4.29 h
- MRT inf ([2]; PO, 5 mg/kg): 5.75 h
- pIC50 (WSU-DLCL2 cells): 8.04
- tumor growth inhibition (TGI %), Day 11 after administration ([3]; 30 mg/kg): 0.25%
- tumor growth inhibition (TGI %), Day 21 after administration ([3]; 30 mg/kg): 60.06%
- tumor growth inhibition (TGI %), Day 11 after administration ([3]; 100 mg/kg): 10.7%
- tumor growth inhibition (TGI %), Day 21 after administration ([3]; 100 mg/kg): 81.43%
- effect on tumor growth (FIG. 1) [3]: complete tumor disappearance
- pIC50 [4]: 7.89

Structure (SMILES): Fc1ccc2c(c1CNc1ncc(OCC3COC3)c3nncn13)CCO2 [HJM-104]
- pIC50 (Karpas422 cells): 6.99
- pIC50 (Pfeiffer cells): 7.09
- AUC(0-inf) ([1]; IV, 1 mg/kg): 1980 ng·h/mL
- Cmax ([1]; IV, 1 mg/kg): 1360 ng/mL
- Tmax ([1]; IV, 1 mg/kg): 0.08 h
- clearance ([1]; IV, 1 mg/kg): 8.47 mL/min/kg
- half-life ([1]; IV, 1 mg/kg): 2.7 h
- MRT inf ([1]; IV, 1 mg/kg): 2.37 h
- AUC(0-inf) ([1]; PO, 2 mg/kg): 3470 ng·h/mL
- Cmax ([1]; PO, 2 mg/kg): 586 ng/mL
- Tmax ([1]; PO, 2 mg/kg): 3.33 h
- half-life ([1]; PO, 2 mg/kg): 2.21 h
- MRT inf ([1]; PO, 2 mg/kg): 4.43 h
- F ([1]; PO, 2 mg/kg): 89.41%
- F ([2]; PO, 5 mg/kg): 102.43%
- AUC(0-inf) ([2]; IV, 1 mg/kg): 3230 ng·h/mL
- Cmax ([2]; IV, 1 mg/kg): 864 ng/mL
- Tmax ([2]; IV, 1 mg/kg): 0.08 h
- clearance ([2]; IV, 1 mg/kg): 5.9 mL/min/kg
- half-life ([2]; IV, 1 mg/kg): 1.67 h
- MRT inf ([2]; IV, 1 mg/kg): 2.86 h
- AUC(0-inf) ([2]; PO, 5 mg/kg): 16500 ng·h/mL
- Cmax ([2]; PO, 5 mg/kg): 3380 ng/mL
- Tmax ([2]; PO, 5 mg/kg): 1 h
- half-life ([2]; PO, 5 mg/kg): 2.09 h
- MRT inf ([2]; PO, 5 mg/kg): 3.53 h
- pIC50 (WSU-DLCL2 cells): 7.53
- tumor growth inhibition (TGI %), Day 11 after administration ([3]; 30 mg/kg): 39.4%
- tumor growth inhibition (TGI %), Day 21 after administration ([3]; 30 mg/kg): 93.29%
- tumor growth inhibition (TGI %), Day 11 after administration ([3]; 100 mg/kg): 88.9%
- tumor growth inhibition (TGI %), Day 21 after administration ([3]; 100 mg/kg): 111.9%
- effect on tumor growth (FIG. 1) [3]: complete tumor disappearance
- pIC50 [4]: 7.28
